Reference: ChEMBL document CHEMBL4825761, “Utilization of Metabolite Identification and Structural Data to Guide Design of Low-Dose IDO1 Inhibitors” (ACS Med Chem Lett, 2021)

Tests used:
[1] = Unbound clearance in Wistar Han rat by LC-MS/MS analysis; assay type: ADME; details: in vivo
[2] = Clearance in dog; assay type: ADME, Canis lupus familiaris; details: in vivo
[3] = Unbound clearance in dog; assay type: ADME, Canis lupus familiaris; details: in vivo
[4] = molecular target: T1, Indoleamine 2,3-dioxygenase 1 (Homo sapiens, UniProt P14902); test: Inhibition of IDO1 in human HeLa cells; assay type: cell-based
Target sequence in this assay (P14902 whole entry): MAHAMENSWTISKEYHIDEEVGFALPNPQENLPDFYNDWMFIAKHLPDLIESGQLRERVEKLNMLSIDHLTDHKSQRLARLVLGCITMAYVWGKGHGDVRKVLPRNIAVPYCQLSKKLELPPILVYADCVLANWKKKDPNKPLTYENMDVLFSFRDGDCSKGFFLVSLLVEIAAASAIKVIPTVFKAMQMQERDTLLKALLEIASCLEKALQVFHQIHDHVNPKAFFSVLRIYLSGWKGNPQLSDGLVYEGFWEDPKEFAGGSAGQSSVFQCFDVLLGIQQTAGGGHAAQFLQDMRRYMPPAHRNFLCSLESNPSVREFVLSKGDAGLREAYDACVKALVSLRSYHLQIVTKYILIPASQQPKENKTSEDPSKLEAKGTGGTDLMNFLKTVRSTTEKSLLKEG

[5] = molecular target: T1, Indoleamine 2,3-dioxygenase 1; test: Inhibition of IDO1 in IFNgamma/LPS stimulated human whole blood assessed as reduction in kynurenine production using tryptophan as substrate preincubated with compound for 15 mins followed by incubation with IFNgamma/LPS for overnight by LC/MS/MS analysis; assay type: tissue-based
[6] = Clearance in Wistar Han rat by LC-MS/MS analysis; assay type: ADME; details: in vivo
[7] = Volume of distribution in Wistar Han rat by LC-MS/MS analysis; assay type: ADME; details: in vivo
[8] = Volume of distribution in dog; assay type: ADME, Canis lupus familiaris; details: in vivo
[9] = Half life in Wistar Han rat by LC-MS/MS analysis; assay type: ADME; details: in vivo
[10] = Half life in dog; assay type: ADME, Canis lupus familiaris; details: in vivo
[11] = Oral bioavailability in Wistar Han rat by LC-MS/MS analysis; assay type: ADME, organism-based; details: in vivo
[12] = Oral bioavailability in dog; assay type: ADME, organism-based, Canis lupus familiaris; details: in vivo
[13] = Lipophilicity, logD of the compound by HPLC analysis; assay type: physicochemical
[14] = Plasma concentration in CD1 mouse xenografted with mouse CT26 cells overexpressing human IDO1 at 3 mg/kg, po administered as single dose measured after 2 hrs by mass spectrometry; assay type: ADME, organism-based
[15] = Plasma concentration in CD1 mouse xenografted with mouse CT26 cells overexpressing human IDO1 at 3 mg/kg, po administered as single dose measured after 4 hrs by mass spectrometry; assay type: ADME, organism-based
[16] = Plasma concentration in CD1 mouse xenografted with mouse CT26 cells overexpressing human IDO1 at 3 mg/kg, po administered as single dose measured after 8 hrs by mass spectrometry; assay type: ADME, organism-based
[17] = Plasma concentration in CD1 mouse xenografted with mouse CT26 cells overexpressing human IDO1 at 3 mg/kg, po administered as single dose measured after 16 hrs by mass spectrometry; assay type: ADME, organism-based; details: in vivo, BLD = below limit of detection

CL free [1] [mL/min/kg] | clearance [2] [mL/min/kg] | CL free [3] [mL/min/kg] | IC50 [4] [nM] | IC50 [5] [nM] | fIC50 [5] [nM] | clearance [6] [mL/min/kg] | Vd [7] [L/kg] | Vd [8] [L/kg] | half-life [9] [h] | half-life [10] [h] | bioavailability [11] [%] | bioavailability [12] [%] | logD [13] | concentration at 2 h [14] [nM] | concentration at 4 h [15] [nM] | concentration at 8 h [16] [nM] | Cp [17] | SMILES
307 | 12.3 | 26 | 2 | 16 | 0.8 | 16.7 | 1.4 | 1.3 | 1.9 | 9 | 46 | 46 | 2.4 | – | – | – | – | Cc1nccc(N2C[C@@H]3C[C@@H]3c3nc(C4(NC(=O)c5ccc(F)cc5)CC4)ccc32)n1
– | – | – | – | – | – | – | – | – | – | – | – | – | – | 210 | 90 | 30 | Bld | Cc1nccc(N2CCCc3nc(C4(NC(=O)c5ccc(F)cc5)CC4)ccc32)n1
